Results from publication PMC8847695 (Frontiers in Chemistry, 2022).

Legend:
Assay type in all cases: binding
Details in all cases: 1 = hit, 0 = no hit
[1] = molecular target: AAK1 (121-471) (Homo sapiens, UniProt Q2M2I8); assay: STD-NMR fragment screening, AAK1
Procedure, shortened: (§1)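 Saturation-transfer difference NMR was run at 25°C and 700 MHz with 20 µM protein, two fragments at 1 mM each, and 10% DMSO-d6. On-resonance saturation was at 0.5–0.6 ppm and off-resonance at 40 ppm, with a 3 s Gaussian-pulse train. A hit required a difference-spectrum peak at least three times the local noise.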

[2] = molecular target: T1, CAMK1G (1-320) (Homo sapiens, UniProt Q96NX5); assay: STD-NMR fragment screening, CAMK1G
T1 construct: made in house; host or cells: E. coli BL21 (DE3) pLysS
T1 sequence (Q96NX5 1-320): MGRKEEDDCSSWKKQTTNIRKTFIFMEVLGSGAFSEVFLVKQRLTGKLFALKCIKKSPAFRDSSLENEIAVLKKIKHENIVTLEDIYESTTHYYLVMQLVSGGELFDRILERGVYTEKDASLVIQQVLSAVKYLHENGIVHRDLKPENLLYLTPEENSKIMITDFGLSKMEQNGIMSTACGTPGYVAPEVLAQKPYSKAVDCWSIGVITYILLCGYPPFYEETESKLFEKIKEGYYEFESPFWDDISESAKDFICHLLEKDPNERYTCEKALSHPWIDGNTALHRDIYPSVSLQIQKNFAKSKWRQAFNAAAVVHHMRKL
Procedure, shortened: as §1

[3] = molecular target: T2, IDO1 (1-435) (Homo sapiens, UniProt P14902); assay: STD-NMR fragment screening, IDO1
T2 construct: His-tag of pET15b with TEV site (thrombin site replaced) (cleaved yes); made in house; host or cells: E. coli Rosetta 2 (DE3) pLysS
T2 sequence (P14902 whole entry, the tested form may be a part): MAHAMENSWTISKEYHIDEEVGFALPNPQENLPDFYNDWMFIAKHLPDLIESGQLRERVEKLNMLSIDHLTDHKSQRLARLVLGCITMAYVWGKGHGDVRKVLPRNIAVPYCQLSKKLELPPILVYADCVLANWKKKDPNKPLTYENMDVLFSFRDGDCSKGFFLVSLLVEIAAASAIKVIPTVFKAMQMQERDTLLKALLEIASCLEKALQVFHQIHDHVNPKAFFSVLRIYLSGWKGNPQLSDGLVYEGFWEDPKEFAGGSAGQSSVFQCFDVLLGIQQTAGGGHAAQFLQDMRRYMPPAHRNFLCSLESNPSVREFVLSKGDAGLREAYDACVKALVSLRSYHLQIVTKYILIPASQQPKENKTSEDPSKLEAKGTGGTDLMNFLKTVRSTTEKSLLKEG
Procedure, shortened: as §1

[4] = molecular target: T3, DOT1L (1-416) (Homo sapiens, UniProt Q8TEK3); assay: STD-NMR fragment screening, DOT1L
T3 construct: made in house; host or cells: E. coli BL21 (DE3) pLysS
T3 sequence (Q8TEK3 1-416): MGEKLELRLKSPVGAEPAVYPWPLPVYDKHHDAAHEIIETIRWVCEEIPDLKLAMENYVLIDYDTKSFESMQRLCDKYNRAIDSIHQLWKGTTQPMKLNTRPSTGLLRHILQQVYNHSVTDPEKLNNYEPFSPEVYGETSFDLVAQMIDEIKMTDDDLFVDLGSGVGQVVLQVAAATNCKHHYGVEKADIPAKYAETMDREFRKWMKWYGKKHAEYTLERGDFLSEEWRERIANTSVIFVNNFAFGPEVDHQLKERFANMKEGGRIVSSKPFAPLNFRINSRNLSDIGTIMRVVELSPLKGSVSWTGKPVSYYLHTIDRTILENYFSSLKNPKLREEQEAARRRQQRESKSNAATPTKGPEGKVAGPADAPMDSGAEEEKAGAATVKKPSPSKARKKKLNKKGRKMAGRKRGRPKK
Procedure, shortened: as §1

AAK1 (121-471), sequence (Q2M2I8 46-315 limits assumed): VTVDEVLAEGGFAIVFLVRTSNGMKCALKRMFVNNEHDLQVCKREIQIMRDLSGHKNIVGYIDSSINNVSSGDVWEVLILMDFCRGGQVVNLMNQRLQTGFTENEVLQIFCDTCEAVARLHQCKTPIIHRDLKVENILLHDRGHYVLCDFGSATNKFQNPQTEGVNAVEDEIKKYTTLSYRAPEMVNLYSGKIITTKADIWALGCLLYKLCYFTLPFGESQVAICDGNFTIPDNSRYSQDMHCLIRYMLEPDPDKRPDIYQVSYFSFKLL

Row | SMILES | AAK1 (STD-NMR hit flag) [1] | CAMK1G (STD-NMR hit flag) [2] | IDO1 (STD-NMR hit flag) [3] | DOT1L (STD-NMR hit flag) [4]
1 | O=C(O)c1ccc(Br)cn1 [Fragment B02291245] | 0 | 0 | 0 | 0
2 | COc1cc(OC)nc(Cl)n1 [Fragment B02291246] | 1 | 0 | 1 | 0
3 | O=C(O)C(O)c1ccccc1Cl (centres unmarked) [Fragment B02291247] | 0 | 0 | 0 | 0
4 | O=c1[nH]cc(Br)c(=O)[nH]1 [Fragment B02291248] | 1 | 1 | 0 | 0
5 | O=C(O)Cc1ccc(Cl)nc1 [Fragment B02291249] | 0 | 0 | 0 | 0
6 | Cc1nn(CCO)c(N)c1I [Fragment B02291250] | 0 | 1 | 0 | 0
7 | O=C(O)c1cnc(Cl)cn1 [Fragment B02291251] | 0 | 0 | 0 | 0
8 | Cn1nc(Br)c(C(=O)NCC(=O)O)c1N [Fragment B02291252] | 1 | 0 | 0 | 0
9 | O=C1CCS(=O)(=O)c2ccc(Cl)cc21 [Fragment B02291253] | 0 | 1 | 0 | 0
10 | Clc1ncnc2[nH]ccc12 [Fragment B02291254] | 1 | 1 | 1 | 0
11 | O=C1Nc2cccc(Cl)c2C1=O [Fragment B02291255] | 0 | 0 | 0 | 0
12 | Clc1cncc(-n2cccn2)n1 [Fragment B02291256] | 1 | 1 | 0 | 0
13 | N#Cc1ccc(O)c(Cl)c1 [Fragment B02291257] | 1 | 0 | 0 | 0
14 | O=C(O)c1cccnc1Cl [Fragment B02291258] | 0 | 0 | 0 | 0
15 | Nc1ccc(C(=O)O)c(Cl)c1 [Fragment B02291259] | 0 | 0 | 0 | 0
16 | Nc1ccc(Cl)c(C(=O)O)c1 [Fragment B02291260] | 0 | 0 | 0 | 0
17 | O=C(O)c1cncc(Br)c1 [Fragment B02291261] | 1 | 0 | 0 | 1
18 | Fc1ncccc1I [Fragment B02291262] | 0 | 0 | 0 | 0
19 | NS(=O)(=O)c1cc(C(=O)O)ccc1Cl [Fragment B02291263] | 0 | 0 | 0 | 0
20 | O=C(O)c1cc(Br)c[nH]1 [Fragment B02291264] | 0 | 0 | 0 | 0
21 | Clc1n[nH]c2ccccc12 [Fragment B02291265] | 1 | 1 | 0 | 0
22 | Cn1c2nc(Br)nc-2c(O)n(C)c1=O [Fragment B02291266] | 1 | 1 | 1 | 0
23 | Clc1cnc(Cl)nc1 [Fragment B02291267] | 0 | 0 | 0 | 0
24 | Clc1ccncc1 [Fragment B02291269] | 0 | 0 | 0 | 0
25 | CCC(N)c1ccc(Cl)cc1 (centres unmarked) [Fragment B02291270] | 1 | 1 | 1 | 1
26 | N#Cc1ccnc(Cl)c1 [Fragment B02291271] | 0 | 0 | 0 | 0
27 | Brc1noc(C2CC2)n1 [Fragment B02291272] | 0 | 0 | 0 | 0
28 | CNc1cc(Cl)c2c(c1)OCO2 [Fragment B02294481] | 0 | 0 | 0 | 0
29 | FC(F)(F)c1cnc(Cl)nc1 [Fragment B02294482] | 0 | 0 | 0 | 0
